Test results as given in patent US20230172897A1, “METHODS OF TREATING BREAST CANCERS WITH SELECTIVE ANDROGEN RECEPTOR MODULATORS AND ADDITIONAL THERAPEUTIC AGENTS” (VERU, INC., priority 2021, published 2023).
Values joined by “and” are separate entries in the source; they are usually repeats but may differ in a detail not shown here. Equal entries are not always repeated.

How the values were obtained:
[1] = Protocol G100402, Phase 1 multiple ascending dose study; assay type: in vivo, healthy male volunteers
Excerpt: These include: 1. Protocol G100401, a Phase 1 single ascending dose study in 96 healthy, young, male volunteers; 2. Protocol G100402, a Phase 1 multiple ascending dose study in 50 healthy, young, male volunteers, and 23 elderly male volunteers with truncal obesity; 3. Protocol G100503, a Phase 1 single dose pharmacokinetic study to assess the effect of a dosage regimen that simulates a sustained release formulation to an immediate release formulation in 18 healthy, young male volunteers and 18 postmenopausal women; 4. Protocol G100506, a Phase 1 single dose pharmacokinetic study to assess the relative bioavailability of a 3 mg […] formulation to be used during continued clinical development and to assess the effect of food on the pharmacokinetics of the 3 mg softgel formulation in 27 healthy, young, male volunteers; 5. Protocol 006, a Phase 1 single dose and multiple dose pharmacokinetic study in 24 postmenopausal, Japanese women; 6. Protocol G200501, a Phase 2 study in 60 postmenopausal women and 60 elderly men to assess lean body mass and physical function; 7. Protocol 003, a Phase 1b study in 44 postmenopausal women; 8. Protocol G200502, a Phase 2b study in 159 men and postmenopausal women with cancer to assess lean body mass and physical function; 9.
Both 10 mg and 30 mg daily doses were evaluated in Protocol G100402 for up to 14 days. Elevated alanine transaminase (ALT) (any elevation outside upper limit of normal [ULN]) was the most common adverse event (AE) experienced. None of the subjects in the 10 mg dose group were discontinued from the study due to ALT elevations. In the 30 mg dose group, six subjects experienced ALT increases above two times the ULN.
Reductions in sex hormone binding globulin (SHBG) have been identified as one of the most sensitive serum biomarkers for AR signaling in healthy volunteers and patients.

[2] = tested on: ER-positive metastatic breast cancer; experiment: Phase 2 clinical trial (G200801), 9 mg daily; assay type: in vivo, women
Experimental: The goal of this study was to determine the importance of the AR status as a therapeutic target in women with ER-positive metastatic breast cancer (MBC) that had previously responded to hormone therapy. The treatment was continued until disease progression (PD).
CBR will be correlated with AR status of metastatic tumor biopsy.
Serum prostate specific antigen (PSA) was evaluated as a biomarker of AR activity.
Female subjects with ER-positive metastatic breast cancer who have previously been treated with up to 3 prior hormonal therapies for the treatment of breast cancer. Subjects must have been treated with and responded to previous adjuvant therapy for ≥3 years or hormonal therapy for metastatic disease for >6 months prior to progression. Details of subject selection criteria are presented below:
Measurable and non-measurable lesions (primary and/or metastatic) were identified and assessed by a modified Response Evaluation Criteria In Solid Tumors (RECIST 1.1) classification over the course of this study (described in detail below).
The primary efficacy analysis was the clinical benefit in subjects with AR-positive breast cancer at 6 months as measured by a modified Response Evaluation Criteria In Solid Tumors (RECIST 1.1) classification. Key secondary endpoints of clinical benefit in all subjects and AR-negative subjects, as well as objective response rate, progression free survival, time to progression, duration of response, incidence of SREs, and time to first SRE in subsets based on AR status (i.e., all subjects, AR-positive subjects, and AR-negative subjects) was also assessed. Effects on CA 27-29, PSA, bone turnover markers, QOL, and libido were assessed as tertiary endpoints.
Clinical benefit in a subject is defined as a complete response [CR], a partial response [PR] or stable disease [SD] as measured by modified RECIST 1.1, which is described in detail below. (Eisenhauer E A et al. New response evaluation criteria in solid tumors: revised RECIST guideline (version 1.1). European Journal of Cancer 45:228-247, 2009).

[3] = 9 mg daily, individual patients

C[C@](O)(COc1ccc(C#N)cc1)C(=O)Nc1ccc(C#N)c(C(F)(F)F)c1 [Formula IX, (S)—N-(4-Cyano-3-(trifluoromethyl)phenyl)-3-(4-cyanophenoxy)-2-hydroxy-2-methylpropanamide]
subjects discontinued due to ALT elevations ([1]; 10 mg dose group): None
subjects with ALT increases above two times the ULN ([1]; 30 mg dose group): six
reduction of SHBG ([1]; PO 1 mg daily for 14 days): 15.1%
reduction of SHBG ([1]; PO 3 mg daily for 14 days): 15.6%
reduction of SHBG ([1]; PO 10 mg daily for 14 days): 18.2%
reduction of SHBG ([1]; PO 30 mg daily for 14 days): 18.4%
tolerability ([1]; daily doses up to 30 mg): well tolerated
CR or PR ([2]; 9 mg daily): no CR or PR has been observed
adverse event: A-fib ([2]; 9 mg daily): 1
adverse event: anxiety/emotional changes ([2]; 9 mg daily): 5
adverse event: arthralgia ([2]; 9 mg daily): 6
adverse event: bloating ([2]; 9 mg daily): 2
adverse event: bruising ([2]; 9 mg daily): 1
adverse event: cellulitis ([2]; 9 mg daily): 1
adverse event: chills ([2]; 9 mg daily): 1
adverse event: constipation ([2]; 9 mg daily): 2
adverse event: cough ([2]; 9 mg daily): 1
adverse event: dehydration ([2]; 9 mg daily): 1
adverse event: diarrhea ([2]; 9 mg daily): 3
adverse event: dizziness ([2]; 9 mg daily): 2
adverse event: dysgeusia ([2]; 9 mg daily): 1
adverse event: dyspepsia ([2]; 9 mg daily): 1
adverse event: dyspnea ([2]; 9 mg daily): 3
adverse event: edema ([2]; 9 mg daily): 2
adverse event: fatigue ([2]; 9 mg daily): 14
adverse event: fever ([2]; 9 mg daily): 1
adverse event: flatulence ([2]; 9 mg daily): 1
adverse event: glaucoma ([2]; 9 mg daily): 1
adverse event: headache ([2]; 9 mg daily): 4
adverse event: hot flash night sweats ([2]; 9 mg daily): 7
adverse event: hypertension ([2]; 9 mg daily): 2
adverse event: infection ([2]; 9 mg daily): 1
adverse event: insomnia ([2]; 9 mg daily): 2
adverse event: myalgia ([2]; 9 mg daily): 5
adverse event: nail discoloration ([2]; 9 mg daily): 1
adverse event: nausea ([2]; 9 mg daily): 11
adverse event: pain ([2]; 9 mg daily): 22
adverse event: paresthesia ([2]; 9 mg daily): 1
adverse event: pleural effusion ([2]; 9 mg daily): 1
adverse event: polyuria ([2]; 9 mg daily): 1
adverse event: post menopausal bleeding ([2]; 9 mg daily): 3
adverse event: stiffness ([2]; 9 mg daily): 1
adverse event: tendonitis ([2]; 9 mg daily): 1
adverse event: vision changes ([2]; 9 mg daily): 3
adverse event: vomiting ([2]; 9 mg daily): 2
adverse event: weight gain ([2]; 9 mg daily): 2
adverse event: weight loss ([2]; 9 mg daily): 2
duration of stable disease, one ongoing subject ([2]; 9 mg daily): > 336 days
liver enzymes (ALT, AST and bilirubin) ([2]; 9 mg daily): returned to baseline
median duration of SD as best response ([2]; 9 mg daily): 212 days
median time to PD ([2]; 9 mg daily): 80 days
patients who reached 6 m that are AR-positive with SD and increased PSA ([2]; 9 mg daily): six
patients with increased PSA levels ([2]; 9 mg daily): 20 of the 22
subjects with progressive disease at 6 months or prior ([2]; 9 mg daily): N = 12
tolerability ([2]; 9 mg daily): well-tolerated
patients with PD (current disposition) ([2]; 9 mg daily, 22 patients): 15
patients with SD (current disposition) ([2]; 9 mg daily, 22 patients): 4
subjects achieving CB as best response ([2]; 9 mg daily, all subjects): 41%
Current Disposition [2, 3]: D/C (2×) and Deceased (4×)
Day 84 RECIST [2, 3]: D/C SAE and PD SAE and D/C
MAX PSA F/U [2, 3]: 2.430 and 0.058 and 0.008 and <0.007 and 0.078 and 0.217 and 9.610 and 0.450 and 3.540 and 0.238 and 8.180 and 0.548 and 0.062 and 0.024 and 13.160 and 0.069 and 0.031 and 0.795 and 0.301 and 0.028 and 0.046 and 0.092
tolerability ([2]; 9 mg daily, listed as Enobosarm): well tolerated
tumor regression in one subject with SD ([2]; 9 mg daily, single target lesion): 27%
6-month Kaplan-Meier estimate for radiographic progression free survival ([2]; 9 mg oral daily): 43.8%
clinical benefit rate at 6 months ([2]; 9 mg oral daily): 35.3%
Progression free probability ([2]; Day 84): 57.5%
Progression free probability ([2]; Day 168): 50.5%
time to progression (TTP) ([2]; seven subjects who achieved CB at six months): 10.2 months
